Source: paper PMC8151276, “An Integrated Approach toward NanoBRET Tracers for Analysis of GPCR Ligand Engagement” (Molecules, 2021)

Target: T1, ADORA2A (Homo sapiens, UniProt P29274)
T1 construct: purchased Promega (in-house HiBiT-GPCR construct library, NanoBRET)
Experiment: NanoBRET screen HiBiT-ADORA2A in HEK293
Type: binding
Experimental: Each tracer candidate was screened across the entire library of HiBiT-GPCR constructs using NanoBRET as the detection modality. As depicted in Figure 4A, the specificity of interactions was evaluated through decrease in BRET due to competitive displacement of a bound tracer by excess parental compound. Each tracer was analyzed for binding to each HiBiT-GPCR fusion in the absence and in the presence of competing parental compound. Briefly, HEK293 cells were transfected with HiBiT-GPCR constructs diluted into promoterless DNA to reduce expression and maximize translocation to the cell surface. Each tracer candidate was then screened at concentrations of 1 μM and 0.1 μM across cells expressing these fusions. Cells were treated for 1.5 h with tracer either alone or in the presence of 20 μM competing parental compound (i.e., control). BRET was measured upon addition of purified LgBiT and subsequent complementation with HiBiT genetically fused to a GPCR. The specificity of interactions was assessed through a decrease in BRET signal due to competitive displacement of the bound tracer. To further gauge the robustness of these interactions, the fold response over the control (i.e., BRETtracer/BRETcontrol) was calculated. We chose a 1.5-fold response, which translates to ≥7-fold signal over noise as the minimal threshold required to score an interaction as positive.
HiBiT-GPCR DNA constructs were diluted in 10 mM Tris pH 8 to a final concentration of 0.01 μg/μL, arrayed in 96-well plates and stored at −20 °C. For transfection, HEK293 cells were suspended in Opti-MEM (without phenol red) supplemented with 2% fetal bovine serum (Seradigm) and 100 units/mL penicillin–streptomycin (Gibco) at a final concentration of 220,000 cells/mL and dispensed into white 96-well plates at 90 μL/well. Subsequent transfections and screens were carried using an Agilent Bravo Automated Liquid Handling Platform. First, the 96-well HiBiT DNA arrays were diluted 25-fold in Opti-MEM (without serum or phenol red) to a final concentration of 0.0004 μg/μL and 20 μL of the diluted DNAs were transferred into new 96-well plates. Next, promoterless carrier DNA (1 μg/μL) was diluted 25-fold (0.04 μg/μL) and then dispensed into the diluted arrays at 20 μL/well. Following brief mixing, Viafect transfection reagent (Promega) diluted 16-fold into Opti-MEM was dispensed into the plates at 40 μL/well. After mixing by pipetting, plates were incubated for 10 min on the pipetting station deck. The DNA-transfection reagent complexes were then added to plates containing cells. To facilitate the screen, 10 μL of DNA-transfection reagent complexes were added in duplicates to the top 4 and bottom 4 rows, resulting in two identical 48-well arrays per plate. Plates with transfected cells were incubated for 18–20 h at 37 °C/5% CO2. A screen of each tracer across the entire library using two different concentrations requires duplicate plates of transfected cells. Depending on the number of tracers being screened, transfections can be scaled up using the same ratios. The next day, for each tracer, four 20× screening solutions in tracer dilution buffer (Promega) were prepared: two duplicates at final concentration of 20 μM and two duplicates at a final concentration of 2 μM. […] The four resulting solutions were diluted 4-fold in Opti-MEM without serum or phenol red to generate 5× solutions (5 µM and 0.5 µM tracer +/− 100 μM competing compound). To screen the library, a BioTek MultiFlo FX liquid dispenser was used to dispense 22.5 µL of tracer solution to the top 4 rows and 22.5 µL tracer + competing compound solution to the 4 bottom rows. Plates were briefly mixed on an orbital shaker and incubated for 1.5 h at room temperature. […] Plates were briefly mixed on an orbital shaker and incubated for 15 min to allow complementation.

T1 sequence (P29274 whole entry): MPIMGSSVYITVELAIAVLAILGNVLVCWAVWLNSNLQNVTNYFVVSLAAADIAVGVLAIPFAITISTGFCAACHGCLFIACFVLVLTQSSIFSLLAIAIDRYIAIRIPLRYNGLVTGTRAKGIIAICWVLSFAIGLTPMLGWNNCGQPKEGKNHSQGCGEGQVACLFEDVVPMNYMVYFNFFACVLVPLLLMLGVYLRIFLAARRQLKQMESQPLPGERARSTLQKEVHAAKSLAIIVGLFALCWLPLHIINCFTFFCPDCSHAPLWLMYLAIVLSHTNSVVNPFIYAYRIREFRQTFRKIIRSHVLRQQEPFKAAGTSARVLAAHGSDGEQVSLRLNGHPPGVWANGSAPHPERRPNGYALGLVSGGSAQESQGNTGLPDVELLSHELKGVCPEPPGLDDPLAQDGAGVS

CCOC(=O)c1cc(C#N)c(N2CCC(C(=O)NS(=O)(=O)Cc3ccccc3/C=C/C(=O)NCCNC(=O)CCc3ccc4n3[B-](F)(F)[N+]3=C(c5ccc[nH]5)C=CC3=C4)CC2)nc1C [AZD1283-1-NB590] was tested, and the “NanoBRET Fold Response” value (ADORA2A, 0.1μM) was 1.06 and the “NanoBRET Fold Response” value (ADORA2A, 1μM) was 1.04.
For N#CN=C(NCCCOc1cccc(CN2CCCCC2)c1)NCCNC(=O)CCOCCOCCOCCOCCNC(=O)CCc1ccc2n1[B-](F)(F)[N+]1=C(c3ccc[nH]3)C=CC1=C2 [Aminopotentidine-2-NB590], the “NanoBRET Fold Response” value (ADORA2A, tracer 0.1μM) was 1.05 and the “NanoBRET Fold Response” value (ADORA2A, tracer 1μM) was 0.99.
For CN(C)CCC=C1c2ccccc2CCc2ccc(C(=O)NCCNC(=O)CCOCCOCCOCCOCCNC(=O)CCc3ccc4n3[B-](F)(F)[N+]3=C(c5ccc[nH]5)C=CC3=C4)cc21 [Amitriptyline-a-2-NB590], the “NanoBRET Fold Response” value (tracer at 0.1μM) was 1.02 and the “NanoBRET Fold Response” value (tracer at 1μM) was 1.07.
CN(C)CCC=C1c2ccccc2CCc2ccc(C(=O)NCCNC(=O)CCOCCOCCOCCOCCNC(=O)CCc3ccc4n3[B-](F)(F)[N+]3=C(c5ccc[nH]5)C=CC3=C4)cc21 [Amitriptyline-b-2-NB590] was tested, and the “NanoBRET Fold Response” value (tracer at 0.1μM, listed as amitriptyline-b-2-NB590) was 1.07 and the “NanoBRET Fold Response” value (tracer at 1μM, listed as amitriptyline-b-2-NB590) was 1.20.
For CN(CCC=C1c2ccccc2CCc2ccccc21)C(=O)CCOCCOCCOCCOCCNC(=O)CCc1ccc2n1[B-](F)(F)[N+]1=C(c3ccc[nH]3)C=CC1=C2 [Amitriptyline-e-2-NB590], the “NanoBRET Fold Response” value (tracer at 1μM) was 1.07.
For COc1ccc2c(n1)c(CCNC(C)=O)cn2CCNC(=O)CCc1ccc2n1[B-](F)(F)[N+]1=C(c3ccc[nH]3)C=CC1=C2 [Azamelatonin-1-NB590], the “NanoBRET Fold Response” value (0.1μM tracer) was 0.87 and the “NanoBRET Fold Response” value (1μM tracer) was 0.92.
For COc1ccc2[nH]c(-c3ccc(CNC(=O)CCOCCOCCOCCOCCNC(=O)CCc4ccc5n4[B-](F)(F)[N+]4=C(c6ccc[nH]6)C=CC4=C5)cc3)c(CCNC(C)=O)c2n1 [AzomelatoninICO9-2-NB590], the “NanoBRET Fold Response” value (0.1μM tracer) was 1.16 and the “NanoBRET Fold Response” value (1μM tracer) was 0.82.
O=C(CCOCCOCCOCCOCCNC(=O)CCc1ccc2n1[B-](F)(F)[N+]1=C(c3ccc[nH]3)C=CC1=C2)NCCCN1CCN(C2=Nc3cc(Cl)ccc3Nc3ccccc32)CC1 [Clozapine-a-2-NB590] was tested, and the “NanoBRET Fold Response” value (ADORA2A, 0.1μM tracer) was 0.95 and the “NanoBRET Fold Response” value (ADORA2A, 1μM tracer) was 0.89.
For CN1CCN(C2=Nc3cc(Cl)ccc3Nc3ccc(CNC(=O)CCOCCOCCOCCOCCNC(=O)CCc4ccc5n4[B-](F)(F)[N+]4=C(c6ccc[nH]6)C=CC4=C5)cc32)CC1 [Clozapine-b-2-NB590], the “NanoBRET Fold Response” value (ADORA2A, 0.1μM tracer) was 0.97 and the “NanoBRET Fold Response” value (ADORA2A, 1μM tracer) was 1.00.
For CN1CCN(C2=Nc3cc(Cl)ccc3N(CC(=O)NCCOCCOCCOCCOCCNC(=O)CCc3ccc4n3[B-](F)(F)[N+]3=C(c5ccc[nH]5)C=CC3=C4)c3ccccc32)CC1 [Clozapine-c-2-NB590], the “NanoBRET Fold Response” value (ADORA2A, 0.1μM tracer) was 1.01 and the “NanoBRET Fold Response” value (ADORA2A, 1μM tracer) was 0.94.
With O=C(CCOCCOCCOCCOCCNC(=O)CCc1ccc2n1[B-](F)(F)[N+]1=C(c3ccc[nH]3)C=CC1=C2)NCCCN1CCN(C2=Nc3ccccc3Oc3ccc(Cl)cc32)CC1 [Loxapine-a-2-NB590] the “NanoBRET Fold Response” value (ADORA2A, tracer 0.1μM) was 1.08 and the “NanoBRET Fold Response” value (ADORA2A, tracer 1μM) was 1.11.
COc1ccccc1N1CCN(CCCCN2C(=O)c3ccc(CNC(=O)CCOCCOCCOCCOCCNC(=O)CCc4ccc5n4[B-](F)(F)[N+]4=C(c6ccc[nH]6)C=CC4=C5)cc3C2=O)CC1 [NAN-190-2-NB590] was tested, and the “NanoBRET Fold Response” value (ADORA2A, tracer 0.1μM) was 1.02.
With COc1ccccc1N1CCN(CCCCN2C(=O)c3ccc(CNC(=O)CCOCCNC(=O)c4ccc(CNC(=O)CCc5ccc6n5[B-](F)(F)[N+]5=C(c7ccc[nH]7)C=CC5=C6)cc4)cc3C2=O)CC1 [NAN-190-3-NB590] the “NanoBRET Fold Response” value (ADORA2A, tracer 0.1μM) was 1.00 and the “NanoBRET Fold Response” value (ADORA2A, tracer 1μM) was 0.91.
In the case of O=C(CCc1ccc2n1[B-](F)(F)[N+]1=C(c3ccc[nH]3)C=CC1=C2)NCc1ccc(C(=O)NCCOCCC(=O)N[C@@H]2CC[C@@]3(O)[C@H]4Cc5ccc(O)c6c5[C@@]3(CCN4CC3CC3)[C@H]2O6)cc1 [Naltrexone-3-NB590], the “NanoBRET Fold Response” value (ADORA2A, tracer 0.1μM) is reported as 1.08 and the “NanoBRET Fold Response” value (ADORA2A, tracer 1μM) is reported as 0.58.
With Cc1cc2c(s1)Nc1ccccc1N=C2N1CCN(CCCNC(=O)CCOCCOCCOCCOCCNC(=O)CCc2ccc3n2[B-](F)(F)[N+]2=C(c4ccc[nH]4)C=CC2=C3)CC1 [Olanzapine-a-2-NB590] the “NanoBRET Fold Response” value (ADORA2A, tracer 0.1μM) was 0.97 and the “NanoBRET Fold Response” value (ADORA2A, tracer 1μM) was 0.93.
O=C(CCc1ccc2n1[B-](F)(F)[N+]1=C(c3ccc[nH]3)C=CC1=C2)NCc1ccc(C(=O)NCCOCCOCCNCC(O)COc2cccc3ccccc23)cc1 (stereo not shown) [Propranolol-3-NB590] was tested, and the “NanoBRET Fold Response” value (ADORA2A, 0.1μM) was 1.05 and the “NanoBRET Fold Response” value (ADORA2A, 1μM) was 0.99.
In the case of O=C(CCc1ccc2n1[B-](F)(F)[N+]1=C(c3ccc[nH]3)C=CC1=C2)NCCOCCOCCNC(=O)OCCOCCN1CCN(C2=Nc3ccccc3Sc3ccccc32)CC1 [Quetiapine-a-2-NB590], the “NanoBRET Fold Response” value (ADORA2A, tracer 0.1μM) is reported as 0.99 and the “NanoBRET Fold Response” value (ADORA2A, tracer 1μM) is reported as 0.91.
With Cc1nc2n(c(=O)c1CCN1CCC(c3noc4cc(F)ccc34)CC1)CCCC2OC(=O)NCCOCCOCCOCCOCCNC(=O)CCc1ccc2n1[B-](F)(F)[N+]1=C(c3ccc[nH]3)C=CC1=C2 (stereo not shown) [Risperidone-2-NB590] the “NanoBRET Fold Response” value (ADORA2A, tracer 0.1μM) was 0.98 and the “NanoBRET Fold Response” value (ADORA2A, tracer 1μM) was 0.98.
With CC(C)N(CC[C@H](c1ccccc1)c1cc(CCNC(=O)CCOCCOCCOCCOCCNC(=O)CCc2ccc3n2[B-](F)(F)[N+]2=C(c4ccc[nH]4)C=CC2=C3)ccc1O)C(C)C [Tolterodine-2-NB590] the “NanoBRET Fold Response” value (ADORA2A, tracer 0.1μM) was 1.35 and the “NanoBRET Fold Response” value (ADORA2A, tracer 1μM) was 0.95.
With CC(C)N(CC[C@H](c1ccccc1)c1cc(CCNC(=O)c2ccc(CNC(=O)CCc3ccc4n3[B-](F)(F)[N+]3=C(c5ccc[nH]5)C=CC3=C4)cc2)ccc1O)C(C)C [Tolterodine-BZ-NB590] the “NanoBRET Fold Response” value (ADORA2A, tracer 0.1μM) was 1.00 and the “NanoBRET Fold Response” value (ADORA2A, tracer 1μM) was 1.01.
CCCn1c(=O)c2[nH]c(-c3ccc(OCC(=O)NCCNC(=O)CCOCCNC(=O)c4ccc(CNC(=O)CCc5ccc6n5[B-](F)(F)[N+]5=C(c7ccc[nH]7)C=CC5=C6)cc4)cc3)nc2n(CCC)c1=O [XAC-3-NB590] was tested, and the “NanoBRET Fold Response” value (ADORA2A, tracer 0.1μM) was 7.87 and the “NanoBRET Fold Response” value (ADORA2A, tracer 1μM) was 9.18.
